These results are taken from ChEMBL document CHEMBL6109071, “Chemical modification for improving drug-like molecular properties of climacostol, a natural resorcinolic lipid” (Bioorg Med Chem, 2025).

The structures appear in SMILES notation. In brackets after ≈: the same amount, converted by molar mass. Activity calls are given as the source filed them. No cut-off for these calls is given here.

The subject of data set [1] is SH-SY5Y. The data set is described as follows: Cytotoxicity against human SH-SY5Y cells assessed as reduction in cell viability at 30 ug/ml measured after 3 hrs by MTT assay relative to control. Type of data set: functional.
The subject of data set [2] is Stentor polymorphus. Description: Cytotoxicity against Stentor polymorphus stock GF-1 assessed as reduction in viability measured after 1 hr. Type of data set: functional.
The subject of data set [3] is Spirostomum ambiguum. The data set is described as follows: Cytotoxicity against Spirostomum ambiguum stock Pol-5 assessed as reduction in viability measured after 1 hr. In kind it is functional.
Data set [4] concerns Blepharisma japonicum. The data set is described as follows: Cytotoxicity against Blepharisma japonicum R1072 assessed as reduction in viability measured after 24 hrs. In kind it is functional.
Data set [5] concerns Paramecium multimicronucleatum. The data set is described as follows: Cytotoxicity against Paramecium multimicronucleatum clone TL-2 assessed as reduction in viability measured after 1 hr. Type of data set: functional.
Data set [6] relates to Stentor polymorphus. Description: Cytotoxicity against Stentor polymorphus stock GF-1 assessed as reduction in viability measured after 24 hrs. Type of data set: functional.
Data set [7] deals with Paramecium tetraurelia. The data set is described as follows: Cytotoxicity against Paramecium tetraurelia stock 51 assessed as reduction in viability measured after 24 hrs. In kind it is functional.
Data set [8] has as its system Spirostomum teres. Description: Cytotoxicity against Spirostomum teres stock Pol-1 assessed as reduction in viability measured after 1 hr. Type of data set: functional.
Data set [9] deals with Blepharisma japonicum. Description: Cytotoxicity against Blepharisma japonicum R1072 assessed as reduction in viability measured after 1 hr. In kind it is functional.
Data set [10] has as its system SH-SY5Y. The data set is described as follows: Cytotoxicity against human SH-SY5Y cells assessed as cell death at 30 ug/ml measured after 24 hrs by MTT assay relative to control. Type of data set: functional. (In general: Tetrazolium dyes change colour on reduction, which living cells bring about.)
The subject of data set [11] is Paramecium multimicronucleatum. Description: Cytotoxicity against Paramecium multimicronucleatum clone TL-2 assessed as reduction in viability measured after 24 hrs. In kind it is functional.
The test system of data set [12] is SH-SY5Y. Description: Cytotoxicity against human SH-SY5Y cells assessed as reduction in cell viability measured after 24 hrs by MTT assay. In kind it is functional, cell-based.
Data set [13] relates to Spirostomum teres. Description: Cytotoxicity against Spirostomum teres stock Pol-1 assessed as reduction in viability measured after 24 hrs. Type of data set: functional.
In data set [14] the test system is Paramecium tetraurelia. The data set is described as follows: Cytotoxicity against Paramecium tetraurelia stock 51 assessed as reduction in viability measured after 1 hr. Type of data set: functional.
Data set [15] has as its system Euplotes aediculatus. Description: Cytotoxicity against Euplotes aediculatus clone EA-III assessed as reduction in viability measured after 24 hrs. In kind it is functional.
For data set [16], the system named is Euplotes aediculatus. Description: Cytotoxicity against Euplotes aediculatus clone EA-III assessed as reduction in viability measured after 1 hr. Type of data set: functional.
The subject of data set [17] is SH-SY5Y. Description: Induction of apoptosis in human SH-SY5Y cells assessed as altered morphology of nuclear area at 10 to 30 ug/ml measured after 9 hrs by DAPI/phalloidin staining based confocal microscopy. Type of data set: functional, cell-based. The settings on record: dose 10-30 µg/ml.
The subject of data set [18] is SH-SY5Y. Description: Induction of apoptosis in human SH-SY5Y cells assessed as increase in caspase-3 expression at 10 to 30 ug/ml measured after 9 hrs by immunostaining based confocal microscopy. Type of data set: functional, cell-based. The settings on record: dose 10-30 µg/ml.
Data set [19] relates to Paramecium tetraurelia. The data set is described as follows: Potency index, ratio of climacostol LC50 to test compound LC50 for cytotoxicity against Paramecium tetraurelia stock 51. In kind it is functional.
A short description of data set [20]: Toxicity in Drosophila melanogaster Oregon-R assessed as change in larvae development by measuring reduction in developed third instar larvae at 100 ug/ml administered through feeding measured twice daily on day 8 to 9 post-treatment relative to control. Also noted: scale not given: the % may be the effect or the level left. The settings on record: po, at 100 µg/mL, time 8-9 day.

The subject of data set [21] is SH-SY5Y. Description: Induction of apoptosis in human SH-SY5Y cells assessed as cytoplasmic shrinkage at 10 to 30 ug/ml measured after 9 hrs by DAPI/phalloidin staining based confocal microscopy. In kind it is functional, cell-based. The settings on record: dose 10-30 µg/ml.
A short description of data set [22]: Toxicity in Drosophila melanogaster Oregon-R assessed as DNA fragmentation in digestive tract of third instar larvae at 100 ug/ml administered through feeding measured after day 8 to 9 by TUNEL/DAPI staining based confocal microscopy. The settings on record: po, time 8-9 day, dose 100 µg/ml.
Data set [23] deals with Paramecium multimicronucleatum. Description: Potency index, ratio of climacostol LC50 to test compound LC50 for cytotoxicity against Paramecium multimicronucleatum clone TL-2. In kind it is functional.
In data set [24] the test system is Euplotes aediculatus. Description: Potency index, ratio of climacostol LC50 to test compound LC50 for cytotoxicity against Euplotes aediculatus clone EA-III. In kind it is functional.
The subject of data set [25] is SH-SY5Y. The data set is described as follows: Cytotoxicity against human SH-SY5Y cells assessed as cell death at 10 ug/ml measured after 24 hrs by MTT assay relative to control. In kind it is functional.
Data set [26] is described as follows: Toxicity in Drosophila melanogaster Oregon-R assessed as increase in cleaved caspase-3 in the cytoplasm of midgut cells of third instar larvae at 100 ug/ml administered through feeding measured after day 8 to 9 by DAPI immunostaining based confocal microscopy. Type of data set: tissue-based. The settings on record: po, time 8-9 day, dose 100 µg/ml.
The subject of data set [27] is SH-SY5Y. The data set is described as follows: Induction of apoptosis in human SH-SY5Y cells assessed as chromatin condensation at 10 to 30 ug/ml measured after 9 hrs by DAPI/phalloidin staining based confocal microscopy. Type of data set: functional, cell-based. The settings on record: dose 10-30 µg/ml.
Data set [28] deals with SH-SY5Y. Description: Induction of apoptosis in human SH-SY5Y cells assessed as altered roundness of nuclear area at 10 to 30 ug/ml measured after 9 hrs by DAPI/phalloidin staining based confocal microscopy. In kind it is functional, cell-based. The settings on record: dose 10-30 µg/ml.

For the compound `CCCCCC/C=C\Cc1cc(O)cc(O)c1`, the result in data set [1] (dose 30.0 µg/ml) was inactive. Moreover, the LC50 in data set [2] stood at 1.21 µg/mL (≈ 5.16 µM); in data set [3], 2.03 µg/mL (≈ 8.66 µM); in [4], 2.04 µg/mL (≈ 8.71 µM); in [5] it was 1.64 µg/mL (≈ 7 µM); in [6], 0.94 µg/mL (≈ 4.01 µM); in data set [7], 0.9 µg/mL (≈ 3.84 µM). Further, the LC50 amounted to 2.04 µg/mL (≈ 8.71 µM) in data set [8]; 3.17 µg/mL (≈ 13.5 µM) in data set [9]; 0.88 µg/mL (≈ 3.76 µM) in data set [11]; 1.68 µg/mL (≈ 7.17 µM) in [13]; 1.43 µg/mL (≈ 6.1 µM) in [14]; 0.83 µg/mL (≈ 3.54 µM) in data set [15]. In addition, in [16], the median lethal concentration (LC50) was 1.7 µg/mL (≈ 7.25 µM). Moreover, the Emax at 30 µg/mL in [10] was 90%. In addition, the Activity entry in data set [12] was “Dose-dependent-effect”. The IC50 in [12] is 12.9 µg/mL (≈ 54.9 µM).

Turning to `CCCCCC/C=C\Cc1cc(O)cc(O)c1O`, the result in data set [17], in data set [18], in [21], in data set [27] and in data set [28] was Active. The Activity was 90% in data set [1] (dose 30 µg/ml); 23% in data set [20]; “Toxic” in data set [22]; “Toxic” in data set [26]; “Dose-dependent-effect” in data set [12]. Further, the RatioLC50 in data set [19], in [23] and in [24] was 2.5 throughout. For the same compound, the 50% lethal concentration (LC50) in data set [2] stood at 1.24 µg/mL (≈ 4.95 µM); in data set [3], 3.73 µg/mL (≈ 14.9 µM); in [4] it was 2.07 µg/mL (≈ 8.27 µM); in [5], 0.58 µg/mL (≈ 2.32 µM); in data set [6], 0.54 µg/mL (≈ 2.16 µM); in data set [7], 0.21 µg/mL (≈ 0.839 µM). In addition, the LC50 in data set [8] is 2.24 µg/mL (≈ 8.95 µM); in [9] it was 3.97 µg/mL (≈ 15.9 µM); in data set [11], 0.13 µg/mL (≈ 0.519 µM); in [13] it was 1.86 µg/mL (≈ 7.43 µM); in [14], 0.29 µg/mL (≈ 1.16 µM); in data set [15] it was 0.23 µg/mL (≈ 0.919 µM). Besides, the 50% lethal concentration (LC50) in data set [16] was found to be 0.7 µg/mL (≈ 2.8 µM). Also, in [25], the maximal response (Emax) at 10 µg/mL was 90%. Also, the IC50 in [12] stood at 4.72 µg/mL (≈ 18.9 µM).

By LC50 is commonly meant the concentration lethal to half of the exposed cells or organisms. Usually Emax stands for the maximal effect, on the per cent scale that the assay sets. The IC50 is the midpoint of a concentration-inhibition curve.
